pEC50: −log10 of the molar value. In brackets after ≈: the same amount, converted by molar mass.
Assays:
wild type cowpox virus = assay: microbe, parasite or virus in culture; format: cell-based; settings: read-out: Cowpox EC50
[1] = tested on: monkeypox virus (Zaire (V79-1-005-scab)); assay: microbe, parasite or virus in culture; format: cell-based; settings: read-out: Monkeypox EC50
camelpox = assay: microbe, parasite or virus in culture; format: cell-based; settings: read-out: Camelpox EC50
Vaccinia virus (NYCBH) = assay: microbe, parasite or virus in culture; format: cell-based; settings: Orthopoxvirus vaccinia, Vero, 72 h, read-out: Vaccinia EC50

Structure (SMILES)	pEC50 (wild type cowpox virus)	pEC50 [1]	pEC50 (camelpox)	pEC50 (Vaccinia virus (NYCBH))	solubility (physchem; aqueous with cosolvent or surfactant or cyclodextrin, ST-246 Solubility)	solubility (physchem; organic solvent or mixture, ST-246 Solubility)	solubility (physchem; organic solvent or mixture, Solubility in organic solvents)	solubility (physchem; pH 6.8, aqueous buffer, ST-246 Solubility)	solubility (physchem; simulated gastric fluid, ST-246 Solubility)	solubility (physchem; water, ST-246 Solubility)
O=C(NN1C(=O)[C@@H]2C3C=CC(C4CC43)[C@@H]2C1=O)c1ccc(C(F)(F)F)cc1 (stereo partly drawn) [Example 1, 4-Trifluoromethyl-N-(3,3a,4,4a,5,5a,6,6a,- octahydro-1,3-dioxo-4,6-ethenocycloprop[f]isoindol-2(1H)-yl)-benzamide]	> 6.30	> 6.30	> 6.30	> 6.30	68.7 µg/mL (≈ 183 µM)	60800 µg/mL (≈ 162000 µM)	60000 µg/mL (≈ 159000 µM)	7 µg/mL (≈ 18.6 µM)	37.5 µg/mL (≈ 99.6 µM)	26 µg/mL (≈ 69.1 µM)
O=C(NN1C(=O)[C@@H]2C3C=CC(C4CC43)[C@@H]2C1=O)c1ccncc1 (stereo partly drawn) [Example 2, N-(3,3a,4,4a,5,5a,6,6a,- octahydro-1,3-dioxo-4,6-ethenocycloprop[f]isoindol-2(1H)-yl)-4-pyridinecarboxamide]	5.30 to 6.00	> 6.30	> 6.30	> 6.30	–	–	–	–	–	–
O=C(NN1C(=O)[C@@H]2C3C=CC(C4CC43)[C@@H]2C1=O)c1ccc(Br)cc1 (stereo partly drawn) [Example 3, 4-Bromo-N-(3,3a,4,4a,5,5a,6,6a,- octahydro-1,3-dioxo-4,6-ethenocycloprop[f]isoindol-2(1H)-yl)-benzamide]	6.00 to 6.30	> 6.30	> 6.30	> 6.30	–	–	–	–	–	–
O=C(NN1C(=O)[C@@H]2C3CCC(C4CC43)[C@@H]2C1=O)c1ccc(Br)cc1 (stereo partly drawn) [Example 15, 4-Bromo-N-(3,3a,4,4a,5,5a,6,6a-octahydro-1,3-dioxo-4,6-ethanocycloprop[f]isoindol-2(1H)-yl)-benzamide]	> 6.30	> 6.30	> 6.30	> 6.30	–	–	–	–	–	–
O=C1[C@@H]2C3C=CC(C4CC43)[C@@H]2C(=O)N1NC(=O)C12CC3CC(CC(C3)C1)C2 (stereo partly drawn) [Example 24, N-(3,3a,4,4a,5,5a,6,6a,- octahydro-1,3-dioxo-4,6-ethenocycloprop[f]isoindol-2(1H)-yl)-tricyclo[3.3.1.13.7] decane-1-carboxamide]	6.00 to 6.30	> 6.30	> 6.30	> 6.30	–	–	–	–	–	–
O=C(NN1C(=O)[C@@H]2C3CCC(CC3)[C@@H]2C1=O)c1ccc(C(F)(F)F)cc1 [Example 29, 4-Trifluoromethyl-N-bicyclo [2.2.2]octane-2,3-dicarboximido-benzamide]	> 6.30	–	–	> 6.30	–	–	–	–	–	–
Cc1nc(C)c(C(=O)NN2C(=O)[C@@H]3C4C=CC(C5CC54)[C@@H]3C2=O)s1 (stereo partly drawn) [Example 41, 2,4-Dimethyl-N-(3,3a,4,4a,5,5a,6,6a-octahydro-1,3-dioxo-4,6-ethenocycloprop[f]isoindol-2(1H)-yl)-thiazole-5-carboxamide]	5.30 to 6.00	–	–	> 6.30	–	–	–	–	–	–

Reference: US8039504B2 (priority 2003, dated 2011)
